Measured values as given in patent US20120053056A1, “COMPOSITIONS AND METHODS FOR IMPROVING THE COMPATIBILITY OF WATER SOLUBLE HERBICIDE SALTS” (DOW AGROSCIENCES LLC, priority 2010, published 2012).

Columns and labels:
[1] = On-set pH of crystallization of aqueous 2,4-D potassium solution with added crystal inhibitor (CI), pH lowered with 0.2 N sulfuric acid; format: physicochemical; conditions: 3% ae 2,4-D K salt in water; CI 0.2 wt %
[2] = Spray solution compatibility (crystal formation) of 2,4-D and glyphosate salts with 2% AMS and added crystal inhibitor; format: physicochemical; conditions: 2% AMS, 342 ppm hardness water, 24 h room temperature
From the text: Spray solutions were formed from aqueous concentrates of 2,4-D choline (prepared by mixing equimolar amounts of 2,4-D acid and choline hydroxide in water) or 2,4-D DMA and various glyphosate salts (potassium, isopropyl ammonium or dimethyl ammonium) at various concentrations (weight percent acid equivalent basis) of the respective active ingredients with and without added polyethylenimine or polyvinylamine crystal inhibitor (CI).

NCCNCCNCCNCCN [TEPA, tetraethylenepentamine]
On-set pH of Crystallization [1]: 5.68
Result (crystals observed 24 hours after preparation of tank mixture) ([2]; 2,4-D choline 1.8 wt % ae + WeatherMax 1.8 wt % ae, CI 0.2%): 1
Result (crystals observed 24 hours after preparation of tank mixture) ([2]; 2,4-D choline 1.8 wt % ae + WeatherMax 1.8 wt % ae, CI 0.4%): 0
Result (crystals observed 24 hours after preparation of tank mixture) ([2]; 2,4-D choline 1.8 wt % ae + WeatherMax (glyphosate potassium) 1.8 wt % ae, CI 0.1%): 3
